Reference: PubChem BioAssay AID248 (DTP/NCI, 2004)
Several values for one entry are separate records, joined by “and”; a condition that tells them apart may be missing. Identical values can stand only once. Toxic doses and inconclusive results are not listed.

Tested on: L1210 leukemia ip in BDF1 mice, survival T/C
Assay: NCI In Vivo Anticancer Drug Screen. Data for tumor model L1210 Leukemia (intraperitoneal) in B6D2F1 (BDF1) mice
Conditions: endpoint: mean survival time, higher = longer survival
In short: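 In this screen, tumor-bearing mice given compound are compared to those given vehicle, and their survival values are reported as a treated-to-control quotient.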

[1] = dose: 100.0 mg/kg/injection, schedule: Q01DX009 (ip), vehicle: saline with Tween-80
[2] = dose: 100.0 mg/kg/injection, schedule: Q04DX003 (ip), vehicle: saline with Tween-80
[3] = dose: 200.0 mg/kg/injection, schedule: Q01DX009 (ip), vehicle: saline with Tween-80
[4] = dose: 200.0 mg/kg/injection, schedule: Q04DX003 (ip), vehicle: saline with Tween-80
[5] = dose: 400.0 mg/kg/injection, schedule: Q01DX009 (ip), vehicle: saline with Tween-80
[6] = dose: 400.0 mg/kg/injection, schedule: Q04DX003 (ip), vehicle: saline with Tween-80
[7] = dose: 100.0 mg/kg/injection, schedule: Q01DX001 (ip), vehicle: saline with Tween-80
[8] = dose: 200.0 mg/kg/injection, schedule: Q01DX001 (ip), vehicle: saline with Tween-80
[9] = dose: 400.0 mg/kg/injection, schedule: Q01DX001 (ip), vehicle: saline with Tween-80
[10] = dose: 50.0 mg/kg/injection, schedule: Q01DX009 (ip), vehicle: saline
[11] = dose: 100.0 mg/kg/injection, schedule: Q01DX009 (ip), vehicle: saline
[12] = dose: 100.0 mg/kg/injection, schedule: Q04DX003 (ip), vehicle: Klucel (hydroxypropylcellulose) (HPC)
[13] = dose: 200.0 mg/kg/injection, schedule: Q04DX003 (ip), vehicle: Klucel (hydroxypropylcellulose) (HPC)
[14] = dose: 100.0 mg/kg/injection, schedule: Q01DX009 (ip), vehicle: Klucel (hydroxypropylcellulose) (HPC)
[15] = dose: 200.0 mg/kg/injection, schedule: Q01DX009 (ip), vehicle: Klucel (hydroxypropylcellulose) (HPC)
[16] = dose: 400.0 mg/kg/injection, schedule: Q01DX009 (ip), vehicle: Klucel (hydroxypropylcellulose) (HPC)

With `Cc1ccc(C(=O)/C=C/c2ccccc2O)cc1` the T/C [1] was 100 % of control, the T/C [2] was 105 % of control and the T/C [3] was 98 % of control. The T/C [4] was 100 % of control, the T/C [5] was 94 % of control and the T/C [6] was 98 % of control.
In the case of `N#Cc1cccc(OCCOc2cccc3ccccc23)c1`, the T/C [7] was 96 % of control, the T/C [8] was 94 % of control and the T/C [9] was 87 % of control.
`Cc1cc(Cl)ccc1NC(=O)Nc1c(Oc2ccc(Cl)cc2)ccc(Cl)c1S(=O)(=O)O` was tested, and the T/C [10] was 104 % of control, the T/C (dose: 50.0 mg/kg/injection, schedule: Q04DX003 (ip), vehicle: saline) was 95 % of control and the T/C [11] was 104 % of control. The T/C (dose: 100.0 mg/kg/injection, schedule: Q04DX003 (ip), vehicle: saline) was 97 % of control, the T/C (dose: 200.0 mg/kg/injection, schedule: Q01DX009 (ip), vehicle: saline) was 100 % of control and the T/C (dose: 200.0 mg/kg/injection, schedule: Q04DX003 (ip), vehicle: saline) was 103 % of control.
For `Cc1ccc(C(C)C)cc1NC(=O)NCCCl`, the T/C (dose: 20.0 mg/kg/injection, schedule: Q04DX003 (ip), vehicle: Klucel (hydroxypropylcellulose) (HPC)) was 94 % of control, the T/C (dose: 40.0 mg/kg/injection, schedule: Q04DX003 (ip), vehicle: Klucel (hydroxypropylcellulose) (HPC)) was 97 % of control and the T/C (dose: 80.0 mg/kg/injection, schedule: Q04DX003 (ip), vehicle: Klucel (hydroxypropylcellulose) (HPC)) was 102 % of control. For the same compound, the T/C [12] was 112 % of control and the T/C [13] was 112 % of control.
For `CC1(C)OC2COC(CN(N=O)C(N)=O)C2O1` (configuration not stated), the T/C (dose: 75.0 mg/kg/injection, schedule: Q01DX001 (ip), vehicle: saline) was 122 % of control.
`O=C(CCCCCCCC(=O)Nc1cc(C2=NCCN2)cc(C2=NCCN2)c1)Nc1cc(C2=NCCN2)cc(C2=NCCN2)c1` was tested, and the T/C (dose: 12.0 mg/kg/injection, schedule: Q01DX Z (ip), vehicle: carboxymethylcellulose (CMC)) was 105 % of control.
In the case of `Cc1cccc(-c2nc3cc(Cl)ccc3c(=O)o2)c1`, the T/C [12] was 97 % of control and the T/C [13] was 90 % of control.
For `NC1=NNC(N)=NN1`, the T/C (dose: 12.5 mg/kg/injection, schedule: Q01DX009 (ip), vehicle: saline) was 93 % of control, the T/C (dose: 25.0 mg/kg/injection, schedule: Q01DX009 (ip), vehicle: saline) was 101 % of control and the T/C [10] was 100 % of control and 107 % of control. The T/C [11] was 92 % of control.
`Cc1c(Cl)cccc1-n1c(C)nc2ccccc2c1=O` was tested, and the T/C (dose: 50.0 mg/kg/injection, schedule: Q01DX001 (ip), vehicle: carboxymethylcellulose (CMC)) was 93 % of control, the T/C (dose: 100.0 mg/kg/injection, schedule: Q01DX001 (ip), vehicle: carboxymethylcellulose (CMC)) was 98 % of control and the T/C (dose: 200.0 mg/kg/injection, schedule: Q01DX001 (ip), vehicle: carboxymethylcellulose (CMC)) was 93 % of control. For the same compound, the T/C (dose: 400.0 mg/kg/injection, schedule: Q01DX001 (ip), vehicle: carboxymethylcellulose (CMC)) was 102 % of control.
For `O=C(O)C(Br)C(Br)c1ccccc1` (configuration not stated), the T/C [2] was 101 % of control, the T/C [4] was 106 % of control and the T/C [6] was 96 % of control.
In the case of `CCCCCCCCCCCC(CCCC)CCCC`, the T/C [7] was 93 % of control, the T/C [8] was 104 % of control and the T/C [9] was 101 % of control.
In the case of `Nc1nc(=S)c2[nH]c(N=Nc3ccc(S(N)(=O)=O)cc3)nc2[nH]1`, the T/C (dose: 50.0 mg/kg/injection, schedule: Q01DX009 (ip), vehicle: Klucel (hydroxypropylcellulose) (HPC)) was 97 % of control, the T/C (dose: 50.0 mg/kg/injection, schedule: Q04DX003 (ip), vehicle: Klucel (hydroxypropylcellulose) (HPC)) was 151 % of control and the T/C [14] was 100 % of control. For the same compound, the T/C [15] was 100 % of control and the T/C [13] was 94 % of control.
For `OCC1OC(n2cnc3c(=S)nc[nH]c32)CC1O` (configuration not stated), the T/C (dose: 8.0 mg/kg/injection, schedule: Q01DX015 (ip), vehicle: saline) was 103 % of control, the T/C (dose: 16.0 mg/kg/injection, schedule: Q01DX015 (ip), vehicle: saline) was 108 % of control and the T/C (dose: 32.0 mg/kg/injection, schedule: Q01DX015 (ip), vehicle: saline) was 115 % of control. The T/C (dose: 50.0 mg/kg/injection, schedule: Q01DX001 (ip), vehicle: saline) was 104 % of control, the T/C (dose: 64.0 mg/kg/injection, schedule: Q01DX015 (ip), vehicle: saline) was 122 % of control and the T/C (dose: 100.0 mg/kg/injection, schedule: Q01DX001 (ip), vehicle: saline) was 106 % of control. For the same compound, the T/C (dose: 178.0 mg/kg/injection, schedule: Q01DX001 (ip), vehicle: saline) was 113 % of control, the T/C (dose: 180.0 mg/kg/injection, schedule: Q01DX015 (ip), vehicle: saline) was 156 % of control and the T/C (dose: 200.0 mg/kg/injection, schedule: Q01DX001 (ip), vehicle: saline) was 115 % of control. The T/C (dose: 267.0 mg/kg/injection, schedule: Q01DX001 (ip), vehicle: saline) was 108 % of control, the T/C (dose: 300.0 mg/kg/injection, schedule: Q01DX015 (ip), vehicle: saline) was 154 % of control and 156 % of control and the T/C (dose: 400.0 mg/kg/injection, schedule: Q01DX001 (ip), vehicle: saline) was 121 % of control. The T/C (dose: 600.0 mg/kg/injection, schedule: Q01DX015 (ip), vehicle: saline) was 163 % of control.
With `COc1ccc(C(C)=O)cc1N` the T/C [14] was 98 % of control, the T/C [12] was 94 % of control and the T/C [15] was 104 % of control. The T/C [13] was 93 % of control, the T/C [16] was 116 % of control and the T/C (dose: 400.0 mg/kg/injection, schedule: Q04DX003 (ip), vehicle: Klucel (hydroxypropylcellulose) (HPC)) was 94 % of control.
In the case of `O=C(Nc1cccc(S(=O)(=O)F)c1)Oc1ccc([N+](=O)[O-])cc1`, the T/C [7] was 100 % of control, the T/C [1] was 95 % of control and 100 % of control and the T/C (dose: 100.0 mg/kg/injection, schedule: Q04DX002 (ip), vehicle: saline with Tween-80) was 91 % of control. The T/C [2] was 95 % of control, the T/C [8] was 100 % of control and the T/C [3] was 98 % of control and 102 % of control. For the same compound, the T/C (dose: 200.0 mg/kg/injection, schedule: Q04DX002 (ip), vehicle: saline with Tween-80) was 91 % of control, the T/C [4] was 100 % of control and the T/C [9] was 98 % of control. For the same compound, the T/C [5] was 88 % of control and the T/C (dose: 400.0 mg/kg/injection, schedule: Q04DX002 (ip), vehicle: saline with Tween-80) was 90 % of control.
For `CC1(C)C=C2OC(=O)CCC2(C)CC1` (configuration not stated), the T/C (dose: 100.0 mg/kg/injection, schedule: Q01DX001 (ip), vehicle: Klucel (hydroxypropylcellulose) (HPC)) was 106 % of control, the T/C [1] was 109 % of control and the T/C (dose: 200.0 mg/kg/injection, schedule: Q01DX001 (ip), vehicle: Klucel (hydroxypropylcellulose) (HPC)) was 106 % of control. The T/C [3] was 112 % of control, the T/C (dose: 400.0 mg/kg/injection, schedule: Q01DX001 (ip), vehicle: Klucel (hydroxypropylcellulose) (HPC)) was 96 % of control and the T/C [5] was 107 % of control.
In the case of `O=C(/C=C/c1ccccc1)Nc1ccccc1C(F)(F)F`, the T/C [14] was 98 % of control, the T/C [15] was 104 % of control and the T/C [16] was 101 % of control.
